How the values were obtained:
[1] = molecular target: T1, Amine oxidase [flavin-containing] B (Homo sapiens, UniProt P27338); assay: In vitro MAO-A/B Inhibition Assay
T1 sequence (P27338 whole entry): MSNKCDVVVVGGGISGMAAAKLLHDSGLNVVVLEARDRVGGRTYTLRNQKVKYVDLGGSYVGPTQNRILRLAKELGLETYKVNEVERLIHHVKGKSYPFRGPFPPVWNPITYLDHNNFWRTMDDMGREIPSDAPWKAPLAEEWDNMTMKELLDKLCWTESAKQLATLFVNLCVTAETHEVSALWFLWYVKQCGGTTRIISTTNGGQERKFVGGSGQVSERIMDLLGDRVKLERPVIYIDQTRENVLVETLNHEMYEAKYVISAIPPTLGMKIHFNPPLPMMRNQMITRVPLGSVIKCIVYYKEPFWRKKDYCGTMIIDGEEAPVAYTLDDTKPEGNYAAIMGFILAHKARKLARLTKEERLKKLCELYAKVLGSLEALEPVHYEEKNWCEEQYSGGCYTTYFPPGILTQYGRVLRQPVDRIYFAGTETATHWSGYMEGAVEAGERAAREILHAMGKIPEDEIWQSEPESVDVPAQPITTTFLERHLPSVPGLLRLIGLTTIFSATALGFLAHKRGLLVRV
Experimental: (§1) The inhibitory activities of flavones were determined in vitro by using fluorescent probe method following the general procedure described in the literature. [Li et al., Nat. Commun., 5:3276]

[2] = molecular target: T2, Amine oxidase [flavin-containing] A (Homo sapiens, UniProt P21397); assay: In vitro MAO-A/B Inhibition Assay
T2 sequence (P21397 whole entry): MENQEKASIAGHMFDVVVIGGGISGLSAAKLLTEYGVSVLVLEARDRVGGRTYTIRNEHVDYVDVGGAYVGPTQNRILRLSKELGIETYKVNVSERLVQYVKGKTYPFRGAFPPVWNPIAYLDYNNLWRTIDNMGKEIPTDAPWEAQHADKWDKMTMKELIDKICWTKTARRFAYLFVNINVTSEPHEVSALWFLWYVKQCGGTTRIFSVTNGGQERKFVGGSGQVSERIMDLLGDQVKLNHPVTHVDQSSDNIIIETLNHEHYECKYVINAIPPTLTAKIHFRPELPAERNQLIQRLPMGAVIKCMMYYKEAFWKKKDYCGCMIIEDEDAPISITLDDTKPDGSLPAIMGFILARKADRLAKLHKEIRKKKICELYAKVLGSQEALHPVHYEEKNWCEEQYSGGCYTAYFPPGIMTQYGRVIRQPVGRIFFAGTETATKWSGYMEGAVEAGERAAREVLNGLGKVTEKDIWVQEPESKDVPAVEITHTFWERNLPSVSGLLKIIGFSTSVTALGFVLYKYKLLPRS
Experimental: as §1

Row | Structure (SMILES) | IC50 [1] | IC50 [2]
1 | O=c1cc(-c2ccccc2)oc2ccc(Cn3nncc3COc3ccc(Cl)cc3)cc12 [6-((5-((4-chlorophenoxy)methyl)-1H-1,2,3-triazol-1-yl)methyl)-2-phenyl-4H-chromen-4-one (Az1k14)] | 527 µM | 
2 | O=c1cc(-c2ccccc2)oc2ccc(Cn3cc(CNc4ccc(Cl)cc4)nn3)cc12 [6-((4-(((4-chlorophenyl)amino)methyl)-1H-1,2,3-triazol-1-yl)methyl)-2-phenyl-4H-chromen-4-one (Az1k20)] | 176 µM | 334 µM
3 | Cc1ccc(C(=O)NCc2cn(Cc3ccc4oc(-c5ccc(Cl)cc5)cc(=O)c4c3)nn2)cc1 [N-((1-((2-(4-chlorophenyl)-4-oxo-4H-chromen-6-yl)methyl)-1H-1,2,3-triazol-4-yl)methyl)-4-methylbenzamide (Az2k2)] | 86 µM | 541 µM
4 | Cc1ccc(OCc2cn(Cc3ccc4oc(-c5ccc(Cl)cc5)cc(=O)c4c3)nn2)cc1 [2-(4-chlorophenyl)-6-((4-((p-tolyloxy)methyl)-1H-1,2,3-triazol-1-yl)methyl)-4H-chromen-4-one (Az2k12)] | 97.4 µM | 152 µM
5 | Cc1ccc(C(=O)NCc2cn(Cc3ccc4oc(-c5ccccc5)cc(=O)c4c3)nn2)cc1 [4-methyl-N-((1-((4-oxo-2-phenyl-4H-chromen-6-yl)methyl)-1H-1,2,3-triazol-4-yl)methyl)benzamide (Az1k2)] | 98 µM | 727 µM
6 | O=c1cc(-c2ccc(Cl)cc2)oc2ccc(Cn3cc(CNc4ccc(Cl)cc4)nn3)cc12 [2-(4-chlorophenyl)-6-((4-(((4-chlorophenyl)amino)methyl)-1H-1,2,3-triazol-1-yl)methyl)-4H-chromen-4-one (Az2k20)] | 132 µM | 166 µM
7 | O=c1cc(-c2ccc(Cl)cc2)oc2ccc(Cn3cc(COc4ccccc4)nn3)cc12 [2-(4-chlorophenyl)-6-((4-(phenoxymethyl)-1H-1,2,3-triazol-1-yl)methyl)-4H-chromen-4-one (Az2k11)] | 336 µM | 346 µM
8 | O=C(CCCCc1cn(Cc2ccc3oc(-c4ccc(Cl)cc4)cc(=O)c3c2)nn1)Nc1ccccc1 [5-(1-((2-(4-chlorophenyl)-4-oxo-4H-chromen-6-yl)methyl)-1H-1,2,3-triazol-4-yl)-N-phenylpentanamide (Az2k8)] | 626 µM | 
9 | O=C(CCc1cn(Cc2ccc3oc(-c4ccccc4)cc(=O)c3c2)nn1)Nc1ccccc1 [3-(1-((4-oxo-2-phenyl-4H-chromen-6-yl)methyl)-1H-1,2,3-triazol-4-yl)-N-phenylpropanamide (Az1k4)] | 124 µM | 266 µM
10 | O=c1cc(-c2ccccc2)oc2ccc(Cn3nncc3COc3ccc(CNC4CC4)cc3)cc12 [6-((5-((4-((cyclopropylamino)methyl)phenoxy)methyl)-1H-1,2,3-triazol-1-yl)methyl)-2-phenyl-4H-chromen-4-one (Az1k16)] | 97.4 µM | 
11 | O=C(NCc1cn(Cc2ccc3oc(-c4ccccc4)cc(=O)c3c2)nn1)c1ccccc1 [N-((1-((4-oxo-2-phenyl-4H-chromen-6-yl)methyl)-1H-1,2,3-triazol-4-yl)methyl)benzamide (Az1k1)] | 111 µM | 184 µM
12 | O=C(CCCCc1cn(Cc2ccc3oc(-c4ccccc4)cc(=O)c3c2)nn1)Nc1ccc(F)cc1 [N-(4-fluorophenyl)-5-(1-((4-oxo-2-phenyl-4H-chromen-6-yl)methyl)-1H-1,2,3-triazol-4-yl)pentanamide (Az1k10)] | 151 µM | 
13 | O=c1cc(-c2ccccc2)oc2ccc(Cn3nncc3CNc3ccc(Cl)cc3)cc12 [6-((5-(((4-chlorophenyl)amino)methyl)-1H-1,2,3-triazol-1-yl)methyl)-2-phenyl-4H-chromen-4-one (Az2k1)] | 176 µM | 334 µM
14 | Cc1ccc(NC(=O)CCc2cn(Cc3ccc4oc(-c5ccc(Cl)cc5)cc(=O)c4c3)nn2)cc1 [3-(1-((2-(4-chlorophenyl)-4-oxo-4H-chromen-6-yl)methyl)-1H-1,2,3-triazol-4-yl)-N-(p-tolyl)propanamide (Az2k5)] | 287 µM | 
15 | O=C(CCc1cn(Cc2ccc3oc(-c4ccccc4)cc(=O)c3c2)nn1)Nc1ccc(F)cc1 [N-(4-fluorophenyl)-3-(1-((4-oxo-2-phenyl-4H-chromen-6-yl)methyl)-1H-1,2,3-triazol-4-yl)propanamide (Az1k6)] | 134 µM | 738 µM
16 | O=c1cc(-c2ccc(Cl)cc2)oc2ccc(Cn3cc(COc4ccc(F)cc4)nn3)cc12 [2-(4-chlorophenyl)-6-((4-((4-fluorophenoxy)methyl)-1H-1,2,3-triazol-1-yl)methyl)-4H-chromen-4-one (Az2k13)] | 291 µM | 
17 | O=c1cc(-c2ccc(Cl)cc2)oc2ccc(Cn3cc(CNc4ccccc4)nn3)cc12 [2-(4-chlorophenyl)-6-((4-((phenylamino)methyl)-1H-1,2,3-triazol-1-yl)methyl)-4H-chromen-4-one (Az2k17)] | 350 µM | 283 µM
18 | O=C(CCc1cn(Cc2ccc3oc(-c4ccc(Cl)cc4)cc(=O)c3c2)nn1)Nc1ccccc1 [3-(1-((2-(4-chlorophenyl)-4-oxo-4H-chromen-6-yl)methyl)-1H-1,2,3-triazol-4-yl)-N-phenylpropanamide (Az2k4)] | 321 µM | 
19 | Cc1ccc(NCc2cnnn2Cc2ccc3oc(-c4ccccc4)cc(=O)c3c2)cc1 [2-phenyl-6-((5-((p-tolylamino)methyl)-1H-1,2,3-triazol-1-yl)methyl)-4H-chromen-4-one (Az1k18)] | 77.4 µM | 109 µM
20 | O=c1cc(-c2ccc(Cl)cc2)oc2ccc(Cn3cc(COc4ccc(Cl)cc4)nn3)cc12 [6-((4-((4-chlorophenoxy)methyl)-1H-1,2,3-triazol-1-yl)methyl)-2-(4-chlorophenyl)-4H-chromen-4-one (Az2k14)] | 505 µM | 
21 | O=c1cc(-c2ccc(Cl)cc2)oc2ccc(Cn3cc(COc4cccc(O)c4)nn3)cc12 [2-(4-chlorophenyl)-6-((4-((3-hydroxyphenoxy)methyl)-1H-1,2,3-triazol-1-yl)methyl)-4H-chromen-4-one (Az2k15)] | 71.3 µM | 
22 | Cc1ccc(NC(=O)CCCCc2cn(Cc3ccc4oc(-c5ccccc5)cc(=O)c4c3)nn2)cc1 [5-(1-((4-oxo-2-phenyl-4H-chromen-6-yl)methyl)-1H-1,2,3-triazol-4-yl)-N-(p-tolyl)pentanamide (Az1k9)] | 413 µM | 
23 | Cc1ccc(NC(=O)CCCCc2cn(Cc3ccc4oc(-c5ccc(Cl)cc5)cc(=O)c4c3)nn2)cc1 [5-(1-((2-(4-chlorophenyl)-4-oxo-4H-chromen-6-yl)methyl)-1H-1,2,3-triazol-4-yl)-N-(p-tolyl)pentanamide (Az2k9)] | 513 µM | 
24 | O=C(CCCCc1cn(Cc2ccc3oc(-c4ccc(Cl)cc4)cc(=O)c3c2)nn1)Nc1ccc(F)cc1 [5-(1-((2-(4-chlorophenyl)-4-oxo-4H-chromen-6-yl)methyl)-1H-1,2,3-triazol-4-yl)-N-(4-fluorophenyl)pentanamide (Az2k10)] | 377 µM | 
25 | O=c1cc(-c2ccc(Cl)cc2)oc2ccc(Cn3cc(COc4ccc(CNC5CC5)cc4)nn3)cc12 [2-(4-chlorophenyl)-6-((4-((4-((cyclopropylamino)methyl)phenoxy)methyl)-1H-1,2,3-triazol-1-yl)methyl)-4H-chromen-4-one (Az2k16)] | 93.9 µM | 
26 | O=c1cc(-c2ccccc2)oc2ccc(Cn3nncc3COc3ccc(F)cc3)cc12 [6-((5-((4-fluorophenoxy)methyl)-1H-1,2,3-triazol-1-yl)methyl)-2-phenyl-4H-chromen-4-one (Az1k13)] | 322 µM | 
